Reference: paper PMC9918429, “ATX-101, a cell-penetrating protein targeting PCNA, can be safely administered as intravenous infusion in patients and shows clinical activity in a Phase 1 study” (Oncogene, 2022)
“Also recorded” adds a separate entry of the source. Ends that are not written are not given here.

Assays:
[1] = tested on: patients with advanced solid tumors; assay: Phase 1 first-in-human study, weekly intravenous ATX-101 infusion: adverse events, DLT, infusion-related reactions (CTCAE v4.03); assay type: in vivo
Description: Here we report results of the ATX-101 first-in-human study in patients with advanced solid tumors. This open-label, single arm Phase 1 study, consisting of two sub-studies, investigated 4 doses of ATX-101 (20, 30, 45, and 60 mg/m^2) administered intravenously every week. In a first, dose-escalation study pre-defined dose-limiting toxicities and PK were assessed (for DLT definition see Supplementary Table 1). If, after 6 weeks, no tumor progression was measured, treatment could be continued in a second, long-term follow-up study until disease progression or unacceptable toxicity with the primary objective safety/tolerability. Efficacy was a secondary endpoint in both sub-studies. The studies were registered in the Australian New Zealand Clinical Trials Registry (ANZCTR) under the following IDs: 375262 and 375319. Details on methods are given in the Supplementary information.
This Phase 1, open-label, single arm, first-in-human study consisted of two sub-studies. Study ATX101-01 was a dose escalation study in accordance with the traditional 3+3 escalation design^1. Patients were treated over 6 weeks when the first tumor assessment was done. In case of disease stabilization or tumor response, patients could continue treatment in the long-term follow-up study ATX101-02. The data analysis has been combined for both studies.
ATX-101 was administered weekly as intravenous infusion.
Due to the occurrence of infusion related reactions (IRR) in the first patient, a premedication was implemented for subsequent patients. Premedication was optimized by the Safety Monitoring Committee (SMC) during the study resulting in the final recommendation to administer corticosteroids, paracetamol, H1 and H2 inhibitors. This medication became standard practice in Cohort 3. Montelukast (anti-leukotriene) was added in Cohort 4. In addition, on each infusion day, the infusion rate had to be increased in 5 steps from 5 mg/h to a maximum of 120 mg/h.
ATX-101 was administered in 4 dosing cohorts. The starting dose was 20 mg/m², escalated to 30 mg/m², 45 mg/m² and 60 mg/m². An SMC, comprising all principal investigators and medical monitors of sponsor and CRO, recommended dose changes and modifications after the end of each completed cohort and during the entire study.
Toxicities were graded as mild, moderate, severe, life threatening or related to death using the Common Terminology Criteria for Adverse Events (CTCAE) Version 4.03. Safety assessments included the incidence of dose limiting toxicities (DLTs), treatment-emergent adverse events (TEAE), laboratory parameters, ECG, performance status, physical examinations. DLT were defined upfront, the DLT period included the first three treatment weeks.

[2] = Plasma pharmacokinetics of ATX-101 on first infusion day, non-compartmental (Phoenix WinNonlin); details: for tmax Median [Min;Max]: from infusion start
Description: Blood samples for a complete pharmacokinetic (PK) profile were collected on the first infusion day. On days 8, 15, and 36 samples were collected during the infusion only. Plasma trough levels were assessed on Days 3 and Day 43.
Primary PK Population: patients with at least 2 measurable plasma concentration time points after the end of infusion on D1

advanced solid tumors = assay: Tumor assessment by investigators according to RECIST V1.1; assay type: in vivo, human
Description: Tumors were assessed by investigators according to RECIST V1.1 at baseline, after 6 weeks and every 3 months thereafter. Efficacy Population: patients with at least one tumor assessment (RECIST) after treatment start

[3] = Full-length peptide in cell culture media after peptide addition; assay type: in vitro ADME; details: cell cultures, 1–2 h after the peptide addition; unpublished data
cell cultures = details: cited from earlier work
[4] = 30 mg/m^2 i.v. infusion, first infusion day, plasma, primary PK population, n = 1
[5] = 45 mg/m^2 i.v. infusion, first infusion day, plasma, primary PK population, mean (SD), n = 4
[6] = 60 mg/m^2 i.v. infusion, first infusion day, plasma, primary PK population, mean (SD), n = 6
[7] = 60 mg/m^2 i.v. infusion, first infusion day, plasma, primary PK population, mean (SD), n = 8

## Ac-MDRWLVKWKKKRKIRRRRRRRRRRR (N-terminus assumed) [ATX-101]
[1]; Overall (n=25), Any Grade
  TEAE: Upper respiratory tract infection: 3 (12.0) n (%)
[1]; Overall (n=25), Grade 3
  TEAE: Abdominal pain upper: 1 (4.0) n (%)
  TEAE: Anemia: 4 (16.0) n (%)
  TEAE: Fatigue: 1 (4.0) n (%)
  TEAE: Hyperglycemia: 2 (8.0) n (%)
  TEAE: Patients with at least one event: 15 (60.0) n (%)
[1]; all 25 patients, 20-60 mg/m^2 weekly, despite premedication and stepwise infusion rate
  Patients with infusion-related reactions (mild and moderate): 64%
[1]; all cohorts (n=25)
  TEAE of CTCAE grade 4/5: CTCAEs grade 4/5 were not observed
[1]; doses up to 60 mg/m^2 weekly
  Maximum tolerated dose: not reached
[1]; in vivo
  Dose-limiting toxicities (DLT): not observed
  IRR Grade 1 (mild), number of patients with IRR: 9 (36.0) n (%)
  IRR Grade 1 (mild), total number of IRRs: 17 N
  IRR Grade 2 (moderate), number of patients with IRR: 13 (52.0) n (%)
  IRR Grade 2 (moderate), total number of IRRs: 45 N
  IRR any grade, total number of IRRs: 62 N
  IRR: Patients with at least one event, number of patients with IRR: 16 (64.0) n (%)
  Patients with IRR in whom IRR was seen on the first infusion day: 83%
  TEAE: Abdominal pain upper: 3 (12.0) n (%)
  TEAE: Anemia: 8 (32.0) n (%)
  TEAE: Diarrhea: 7 (28.0) n (%)
  TEAE: Dysgeusia: 3 (12.0) n (%)
  TEAE: Erythema: 3 (12.0) n (%)
  TEAE: Fatigue: 12 (48.0) n (%)
  TEAE: Headache: 3 (12.0) n (%)
  TEAE: Hyperglycemia: 3 (12.0) n (%)
  TEAE: Infusion related reactions: 16 (64.0) n (%)
  TEAE: Insomnia: 3 (12.0) n (%)
  TEAE: Nausea: 4 (16.0) n (%)
  TEAE: Patients with at least one event: 25 (100.0) n (%)
  TEAE: Pyrexia: 4 (16.0) n (%)
  TEAE: Vascular access site bruising: 3 (12.0) n (%)
  Treatment-related TEAE: Anemia: 2 (8.0) n (%)
  Treatment-related TEAE: Diarrhea: 4 (16.0) n (%)
  Treatment-related TEAE: Dysgeusia: 3 (12.0) n (%)
  Treatment-related TEAE: Erythema: 2 (8.0) n (%)
  Treatment-related TEAE: Fatigue: 8 (32.0) n (%)
  Treatment-related TEAE: Flushing: 2 (8.0) n (%)
  Treatment-related TEAE: Hyperglycemia: 2 (8.0) n (%)
  Treatment-related TEAE: Infusion-related reactions: 16 (64.0) n (%)
  Treatment-related TEAE: Patients with at least 1 event: 23 (92.0) n (%)
  Treatment-related adverse events of grade 3: one grade 3 adverse event
  Vital signs, ECG, and laboratory values: didn’t show a trend of changes
[1]; in vivo, iv
  Recommended phase 2 dose (RP2D), monotherapy: 60 mg/m^2
[2]; 20 mg/m^2 i.v. infusion, first infusion day, plasma, primary PK population, n = 1
  tmax Median [Min;Max]: 2.02 [N/A] h
[2]; [4]
  tmax Median [Min;Max]: 2.98 [N/A] h
  CL: 14,400 mL/h/m^2
  Vz: 7970 mL/m^2
  kel: 1.81 h⁻¹
[2]; 45 mg/m^2 i.v. infusion, first infusion day, plasma, primary PK population, median [min;max], n = 4
  tmax Median [Min;Max]: 2.37 [1.32;2.82] h
[2]; [5]
  AUC0-t: 1980 (427) h × ng/mL
  AUC(0-inf): 2200 (591) h × ng/mL
  CL: 21,500 (6120) mL/h/m^2
  Cmax: 1150 (166) ng/mL
  Vz: 13,100 (6830) mL/m^2
  kel: 2.25 (1.57) /h
[2]; 60 mg/m^2 i.v. infusion, first infusion day, plasma, primary PK population, median [min;max], n = 8
  tmax Median [Min;Max]: 4.75 [1.60;9.12] h
[2]; [6]
  CL: 17,800 (5880) mL/h/m^2
  MRT0-inf: 1.54 (0.66) h
  Vz: 12,900 (5520) mL/m^2
  kel: 1.51 (0.46) /h
[2]; [7]
  AUC0-t: 3320 (1260) h × ng/mL
  Cmax: 1320 (815) ng/mL
[2]; all dose levels (20, 30, 45, 60 mg/m^2)
  Elimination half-life in blood: less than 30 min
[2]; human, plasma, iv, 20 mg/m2
  AUC0-t: 666 ng·h/mL
  Cmax: 468 ng/mL
[2]; human, plasma, iv, 30 mg/m2
  AUC0-t: 1900 ng·h/mL
  AUC(0-inf): 2080 ng·h/mL
  Cmax: 720 ng/mL
  MRT: 36.7 min
[2]; human, plasma, iv, 45 mg/m2
  MRT: 53.3 min
[2]; human, plasma, iv, 60 mg/m2
  AUC(0-inf): 3700 ng·h/mL
Advanced solid tumors; 12 patients of long-term follow-up study, range [7–74]
  Median time to treatment discontinuation: 18 weeks
Advanced solid tumors; Efficacy Population (n = 20), after 6 weeks, RECIST V1.1
  Stable disease at the end of the dose escalation study: 70%
Advanced solid tumors; Efficacy Population, Cohort 1 (20 mg/m^2)
  Disease stabilization over at least 4.1 months: 50%
Advanced solid tumors; Efficacy Population, Cohort 2 (30 mg/m^2)
  Disease stabilization over at least 4.1 months: 33.3%
Advanced solid tumors; Efficacy Population, Cohort 3 (45 mg/m^2)
  Disease stabilization over at least 4.1 months: 50%
Advanced solid tumors; Efficacy Population, Cohort 4 (60 mg/m^2)
  Disease stabilization over at least 4.1 months: 33.3%
Advanced solid tumors; Efficacy Population, RECIST V1.1
  Partial or complete tumor responses: No tumor responses were observed; also recorded: No partial or complete responses were observed
Advanced solid tumors; long-term follow-up, 5 of 12 patients
  Stable disease at treatment discontinuation: 41.7%
Advanced solid tumors; long-term follow-up, 7 of 12 patients
  Progressive disease at treatment discontinuation: 58.3%
[3]
  Full-length peptide in the culture media: no full-length peptide was found
Cell cultures
  Duration of activity (inhibition of growth, increased apoptosis) after addition of the peptide: up to five days
